BigSolDB 2.1

COC(=O)c1nc[nH]n1
Details	solubility (mole fraction)
in 2-pentanone, 278.15 K	0.000862
in 2-pentanone, 283.35 K	0.000994
in 2-pentanone, 288.05 K	0.0012
in 2-pentanone, 292.55 K	0.00136
in 2-pentanone, 297.95 K	0.00165
in 2-pentanone, 302.65 K	0.00192
in 2-pentanone, 307.35 K	0.00222
in 2-pentanone, 313.05 K	0.00253
in 2-pentanone, 317.35 K	0.00285
in 3-pentanone, 278.25 K	0.000784
in 3-pentanone, 283.35 K	0.000902
in 3-pentanone, 288.05 K	0.00107
in 3-pentanone, 292.55 K	0.00127
in 3-pentanone, 298.35 K	0.00143
in 3-pentanone, 303.05 K	0.00172
in 3-pentanone, 307.35 K	0.00191
in 3-pentanone, 312.85 K	0.00224
in 3-pentanone, 317.15 K	0.00243
in MIBK, 278.25 K	0.000526
in MIBK, 283.35 K	0.000657
in MIBK, 288.05 K	0.000734
in MIBK, 292.55 K	0.000852
in MIBK, 298.35 K	0.00111
in MIBK, 303.05 K	0.00127
in MIBK, 307.35 K	0.00148
in MIBK, 312.55 K	0.00172
in MIBK, 317.05 K	0.00197
in THF, 278.15 K	0.00105
in THF, 283.05 K	0.00137
in THF, 289.05 K	0.00196
in THF, 293.25 K	0.00244
in THF, 298.35 K	0.00323
in THF, 303.05 K	0.00419
in THF, 307.35 K	0.00517
in THF, 313.85 K	0.00714
in THF, 317.95 K	0.00875
in acetone, 278.15 K	0.00153
in acetone, 283.35 K	0.00181
in acetone, 288.05 K	0.00203
in acetone, 292.55 K	0.00232
in acetone, 297.95 K	0.00286
in acetone, 302.65 K	0.0033
in acetone, 307.35 K	0.00382
in acetone, 313.25 K	0.00458
in acetone, 317.55 K	0.00508
in acetonitrile, 278.65 K	0.000843
in acetonitrile, 283.45 K	0.000993
in acetonitrile, 288.25 K	0.0012
in acetonitrile, 292.85 K	0.00142
in acetonitrile, 297.05 K	0.00168
in acetonitrile, 301.85 K	0.00206
in acetonitrile, 307.35 K	0.00245
in acetonitrile, 313.25 K	0.00305
in acetonitrile, 318.95 K	0.00384
in cyclohexanone, 278.05 K	0.00557
in cyclohexanone, 282.95 K	0.00583
in cyclohexanone, 289.05 K	0.00622
in cyclohexanone, 293.25 K	0.00657
in cyclohexanone, 298.35 K	0.00687
in cyclohexanone, 303.05 K	0.0075
in cyclohexanone, 307.35 K	0.00814
in cyclohexanone, 313.75 K	0.00888
in cyclohexanone, 317.85 K	0.00962
in cyclopentanone, 277.95 K	0.00156
in cyclopentanone, 282.85 K	0.0018
in cyclopentanone, 288.95 K	0.00219
in cyclopentanone, 293.25 K	0.00251
in cyclopentanone, 298.25 K	0.00303
in cyclopentanone, 303.05 K	0.00356
in cyclopentanone, 307.25 K	0.00417
in cyclopentanone, 313.65 K	0.0053
in cyclopentanone, 317.65 K	0.00632
in ethanol, 278.45 K	0.00142
in ethanol, 283.15 K	0.0016
in ethanol, 288.05 K	0.00204
in ethanol, 292.65 K	0.00254
in ethanol, 297.25 K	0.00305
in ethanol, 301.65 K	0.00378
in ethanol, 306.95 K	0.00464
in ethanol, 312.65 K	0.00602
in ethanol, 318.05 K	0.00759
in isobutanol, 278.65 K	0.00103
in isobutanol, 283.35 K	0.00116
in isobutanol, 288.25 K	0.00141
in isobutanol, 292.85 K	0.00182
in isobutanol, 297.05 K	0.00222
in isobutanol, 301.85 K	0.00273
in isobutanol, 307.15 K	0.00337
in isobutanol, 313.15 K	0.00439
in isobutanol, 318.65 K	0.00581
in isopropanol, 278.55 K	0.000966
in isopropanol, 283.25 K	0.00119
in isopropanol, 288.15 K	0.00146
in isopropanol, 292.75 K	0.00188
in isopropanol, 297.15 K	0.00235
in isopropanol, 301.75 K	0.00297
in isopropanol, 307.05 K	0.00389
in isopropanol, 312.85 K	0.00511
in isopropanol, 318.35 K	0.00693
in methanol, 278.45 K	0.00294
in methanol, 283.15 K	0.0033
in methanol, 288.05 K	0.00385
in methanol, 292.65 K	0.00467
in methanol, 297.25 K	0.00537
in methanol, 301.65 K	0.00645
in methanol, 306.95 K	0.00768
in methanol, 312.55 K	0.00952
in methanol, 317.85 K	0.0115
in n-butanol, 278.55 K	0.00199
in n-butanol, 283.35 K	0.00217
in n-butanol, 288.15 K	0.00246
in n-butanol, 292.75 K	0.00279
in n-butanol, 297.15 K	0.00326
in n-butanol, 301.75 K	0.00378
in n-butanol, 307.15 K	0.00476
in n-butanol, 312.95 K	0.00613
in n-butanol, 318.45 K	0.00818
in n-propanol, 278.55 K	0.00137
in n-propanol, 283.25 K	0.00153
in n-propanol, 288.15 K	0.00183
in n-propanol, 292.75 K	0.00227
in n-propanol, 297.15 K	0.00264
in n-propanol, 301.75 K	0.00325
in n-propanol, 307.05 K	0.00398
in n-propanol, 312.75 K	0.00532
in n-propanol, 318.15 K	0.0069
